Reference: US6914052B2, “Selective anti-viral nucleoside chain terminators” (The Trustees of Boston College, priority 2001, dated 2005)

What was measured:
Type in all cases: biochemical
Details in all cases: single triphosphate offered to enzyme/primer/template complex, template dG; 37° C. for 45 min; denaturing PAGE
[1] = target: HIV reverse transcriptase (Human immunodeficiency virus type 1 group M subtype B, UniProt P04585); assay: Primer extension / chain termination with HIV reverse transcriptase
Source text: (§1) The nucleoside incorporation experiment for one of the modified nucleotide analog compounds of the present invention is illustrated in FIGS. 12 and 13. […] The first nucleoside added to the primer should be a C residue (coded by the G residue of the template). A single triphosphate of dC or the above analog is offered to the enzyme/primer/template complex. […] In the remaining lanes of the gel, experiments have been designed with only the analog dd2ApyTP present with the primer template complex.
(§2) The following buffers were used for each polymerase: DNA polmerase α, 50 mM Tris.HCl pH 8.0, 5 mM Mg(AcO)2, 1 mM DTT, 1 mM spermidine; DNA pol β 50 mM Tris.HCl pH 8.0, 10 mM MgCl2, 1 mM DTT; DNA Polymerase γ 50 mM Tris.HCl pH 7.5, 100 mM NaCl, 2.5 MM MgCl2; HIV RT 50 mM Tris.HCl pH 8.5, 10 mM MgCl2, 40 mM KCl, 1 mM DTT. Template, primer and the corresponding buffer were mixed and heated to 100° C. for 1 min, allowed to cool to room temperature then placed on ice for 30 min. Once the template and primer had been allowed to anneal the polymerase was added. The appropriate amount of template-primer mixture was added to a vial containing water and the NTP(s) at the desired concentration. Typical reaction volumes were 10 μL. The reactions were incubated at 37° C. for 45 min. […] Primer extensions were analyzed by standard methods by denaturing Polyacrylamide Gel Electrophoresis (PAGE). […]

human polymerase β = human polymerase β (Homo sapiens, UniProt P06746); assay: Primer extension / chain termination with human polymerase β
Source text: as §1, §2

human polymerase α = target: T1, human polymerase α (Homo sapiens, UniProt P09884); assay: Primer extension / chain termination with human polymerase α
T1 sequence (P09884 1-1462): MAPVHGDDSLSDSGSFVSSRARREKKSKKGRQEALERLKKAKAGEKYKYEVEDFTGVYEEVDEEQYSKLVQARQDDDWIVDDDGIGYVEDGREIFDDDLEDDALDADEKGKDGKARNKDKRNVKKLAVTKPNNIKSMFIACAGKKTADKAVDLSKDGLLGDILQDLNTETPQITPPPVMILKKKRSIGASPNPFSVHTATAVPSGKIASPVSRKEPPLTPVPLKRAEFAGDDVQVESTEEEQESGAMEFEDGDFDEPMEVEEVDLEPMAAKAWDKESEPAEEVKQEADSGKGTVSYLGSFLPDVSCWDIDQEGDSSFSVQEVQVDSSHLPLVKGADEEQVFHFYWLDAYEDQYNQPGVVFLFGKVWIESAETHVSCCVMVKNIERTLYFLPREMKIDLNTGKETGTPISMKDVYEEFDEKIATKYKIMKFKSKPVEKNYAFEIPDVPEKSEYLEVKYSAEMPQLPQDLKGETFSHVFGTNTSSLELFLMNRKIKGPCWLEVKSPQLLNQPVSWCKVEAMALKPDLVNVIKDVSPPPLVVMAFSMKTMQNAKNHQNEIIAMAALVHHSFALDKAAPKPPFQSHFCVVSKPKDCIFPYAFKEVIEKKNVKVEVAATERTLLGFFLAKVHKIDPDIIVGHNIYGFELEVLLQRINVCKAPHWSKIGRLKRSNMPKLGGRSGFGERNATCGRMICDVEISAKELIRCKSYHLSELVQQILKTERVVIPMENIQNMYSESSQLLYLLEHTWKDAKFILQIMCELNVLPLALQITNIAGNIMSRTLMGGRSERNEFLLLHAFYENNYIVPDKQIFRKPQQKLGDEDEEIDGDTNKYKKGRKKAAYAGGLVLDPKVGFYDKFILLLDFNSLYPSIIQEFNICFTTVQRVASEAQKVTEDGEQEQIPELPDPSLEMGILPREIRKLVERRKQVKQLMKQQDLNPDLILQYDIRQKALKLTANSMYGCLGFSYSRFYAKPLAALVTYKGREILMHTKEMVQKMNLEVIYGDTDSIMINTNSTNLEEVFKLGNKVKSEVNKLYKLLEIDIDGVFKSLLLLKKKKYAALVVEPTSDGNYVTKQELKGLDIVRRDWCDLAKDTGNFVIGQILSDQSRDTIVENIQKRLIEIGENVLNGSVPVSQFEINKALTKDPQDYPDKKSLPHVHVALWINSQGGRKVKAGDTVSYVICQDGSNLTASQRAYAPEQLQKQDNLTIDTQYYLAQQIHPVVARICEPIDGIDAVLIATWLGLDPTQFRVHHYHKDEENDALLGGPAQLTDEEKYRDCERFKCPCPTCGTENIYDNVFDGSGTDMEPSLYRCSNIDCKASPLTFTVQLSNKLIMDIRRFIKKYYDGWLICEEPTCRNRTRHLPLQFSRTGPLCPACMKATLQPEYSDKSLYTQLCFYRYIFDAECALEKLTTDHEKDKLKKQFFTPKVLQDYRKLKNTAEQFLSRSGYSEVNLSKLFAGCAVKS
Protocol: (§3) FIG. 13 illustrates the results for polymerases α and γ.
(§4) The following buffers were used for each polymerase: DNA polmerase α, 50 mM Tris.HCl pH 8.0, 5 mM Mg(AcO)2, 1 mM DTT, 1 mM spermidine; DNA pol β 50 mM Tris.HCl pH 8.0, 10 mM MgCl2, 1 mM DTT; DNA Polymerase γ 50 mM Tris.HCl pH 7.5, 100 mM NaCl, 2.5 MM MgCl2; HIV RT 50 mM Tris.HCl pH 8.5, 10 mM MgCl2, 40 mM KCl, 1 mM DTT. Template, primer and the corresponding buffer were mixed and heated to 100° C. for 1 min, allowed to cool to room temperature then placed on ice for 30 min. Once the template and primer had been allowed to anneal the polymerase was added. The appropriate amount of template-primer mixture was added to a vial containing water and the NTP(s) at the desired concentration. Typical reaction volumes were 10 μL. The reactions were incubated at 37° C. for 45 min. The reactions were quenched using Na-EDTA, heated at 100° C. for 1 min, and then flash frozen in liquid N2. Primer extensions were analyzed by standard methods by denaturing Polyacrylamide Gel Electrophoresis (PAGE).
(§5) Analytical polyacrylamide gel electrophoresis was performed using a 38×50 cm Sequi-Gen GT sequencing cell with a thickness of 0.4 mm and 15% monomer (acrylamide:bisacrylamide 19:1). Gels were run using 90 mM Tris-Borate 1 mM EDTA buffer (pH 8.3). Gels were imaged on Phosphorimager: 425 from Molecular Dynamics (Sunnyvale, Calif.).

human polymerase γ = target: T2, human polymerase γ (Homo sapiens, UniProt P54098); assay: Primer extension / chain termination with human polymerase γ
T2 sequence (P54098 1-1239): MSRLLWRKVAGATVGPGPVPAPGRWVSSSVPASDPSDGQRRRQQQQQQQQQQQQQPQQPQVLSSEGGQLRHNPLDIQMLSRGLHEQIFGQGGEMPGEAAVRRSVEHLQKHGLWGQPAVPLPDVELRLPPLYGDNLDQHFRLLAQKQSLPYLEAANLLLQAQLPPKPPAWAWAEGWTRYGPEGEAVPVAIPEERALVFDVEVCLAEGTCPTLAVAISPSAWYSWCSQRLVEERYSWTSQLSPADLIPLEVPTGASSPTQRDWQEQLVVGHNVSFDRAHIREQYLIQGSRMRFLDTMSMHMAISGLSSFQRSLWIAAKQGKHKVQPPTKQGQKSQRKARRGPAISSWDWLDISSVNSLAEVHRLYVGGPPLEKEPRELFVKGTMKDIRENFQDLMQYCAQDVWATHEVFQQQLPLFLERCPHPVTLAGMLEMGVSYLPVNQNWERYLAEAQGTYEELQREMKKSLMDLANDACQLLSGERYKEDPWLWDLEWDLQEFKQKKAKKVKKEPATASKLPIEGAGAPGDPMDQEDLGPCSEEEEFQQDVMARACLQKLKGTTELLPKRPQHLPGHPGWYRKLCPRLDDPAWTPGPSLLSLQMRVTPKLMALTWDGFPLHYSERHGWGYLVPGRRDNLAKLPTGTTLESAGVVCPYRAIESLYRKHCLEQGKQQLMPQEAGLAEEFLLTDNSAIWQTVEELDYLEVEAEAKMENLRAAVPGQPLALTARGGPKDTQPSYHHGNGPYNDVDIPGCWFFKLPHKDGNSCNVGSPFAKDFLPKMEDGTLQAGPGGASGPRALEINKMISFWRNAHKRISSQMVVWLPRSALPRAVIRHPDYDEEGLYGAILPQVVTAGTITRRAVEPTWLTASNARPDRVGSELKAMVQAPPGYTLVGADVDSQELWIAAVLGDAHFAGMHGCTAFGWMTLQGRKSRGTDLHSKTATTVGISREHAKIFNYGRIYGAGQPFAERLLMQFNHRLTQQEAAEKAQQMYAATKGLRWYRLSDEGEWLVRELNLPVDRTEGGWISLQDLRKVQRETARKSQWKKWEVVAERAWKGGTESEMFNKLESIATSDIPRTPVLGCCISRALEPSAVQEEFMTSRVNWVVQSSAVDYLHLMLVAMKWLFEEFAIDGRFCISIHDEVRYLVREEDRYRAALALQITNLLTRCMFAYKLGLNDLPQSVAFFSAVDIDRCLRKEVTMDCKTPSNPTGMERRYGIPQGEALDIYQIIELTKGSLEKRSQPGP
Protocol: as §3, §4, §5

SMILES: Nc1ccn([C@H]2C[C@H](O)[C@@H](COP(=O)(O)OP(=O)(O)OP(=O)(O)O)O2)c(=O)n1 [dCTP]
- incorporation of the triphosphate into the primer (primer extension, gel, FIG. 12 left) [1]: two additions of the nucleoside
- incorporation of the triphosphate into the primer (primer extension, gel, FIG. 12 right) (human polymerase β): incorporated by human polymerase β in the normal fashion
- incorporation of the triphosphate into the primer (primer extension, gel, FIG. 13 left) (human polymerase α): normal incorporation into the primer
- incorporation of the triphosphate into the primer (primer extension, gel, FIG. 13 right) (human polymerase γ): normal incorporation into the primer
